From patent US20100056565A1, “Heterocyclic Derivatives as M3 Muscarinic Receptors” (priority 2007, published 2010) come the findings set out here.

Structures can show the parent of a compound that is named as a salt.

For the first experiment, the target named is T1, Recombinant human M3 receptor (Homo sapiens, UniProt P20309).
T1 construct: expressed in transfected cells; host or cells: CHO-K1 cells (membranes)
T1 sequence (P20309 whole entry): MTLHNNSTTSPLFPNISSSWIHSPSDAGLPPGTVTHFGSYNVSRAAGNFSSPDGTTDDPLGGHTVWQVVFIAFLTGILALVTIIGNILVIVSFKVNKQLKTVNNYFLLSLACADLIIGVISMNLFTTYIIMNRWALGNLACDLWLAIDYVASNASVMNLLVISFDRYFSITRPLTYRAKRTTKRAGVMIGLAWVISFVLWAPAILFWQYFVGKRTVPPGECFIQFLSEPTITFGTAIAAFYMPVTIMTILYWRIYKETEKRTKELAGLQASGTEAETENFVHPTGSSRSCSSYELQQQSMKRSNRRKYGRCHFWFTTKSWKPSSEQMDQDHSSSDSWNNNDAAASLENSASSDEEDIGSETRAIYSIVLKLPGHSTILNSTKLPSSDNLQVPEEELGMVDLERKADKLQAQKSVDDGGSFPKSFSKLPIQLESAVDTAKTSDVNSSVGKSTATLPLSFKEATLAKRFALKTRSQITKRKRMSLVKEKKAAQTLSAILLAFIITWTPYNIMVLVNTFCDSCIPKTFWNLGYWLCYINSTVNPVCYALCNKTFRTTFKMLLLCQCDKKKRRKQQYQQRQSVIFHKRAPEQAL
Briefly: biochemical. The note with it: M3 Ki (SPA format, SPA format). It is filed as binding. The protocol:
Recombinant human M3 receptor was expressed in CHO-K1 cells. Cell membranes were prepared and binding of [3H]-N-methyl scopolamine ([3H]-NMS) and compounds was assessed by a scintillation proximity assay (SPA). The incubation time was 16 hours at room temperature in the presence of 1% (v/v) DMSO. The assay was performed in white 96 well clear-bottomed NBS plates (Corning). Prior to the assay, the CHO cell membranes containing M3 receptor were coated onto SPA WGA (Wheat germ agglutinin) beads (GE Healthcare). Non specific binding was determined in the presence of 1 μM Atropine.
Radioactivity was measured on a Microbeta scintillation counter (PerkinElmer) using a 3H protocol with a 2 minutes per well read time. […] Concentration dependent inhibition of [3H]-NMS binding by compounds was expressed as pIC50.
In the case of `O=C(O[C@H]1C[N+]2(Cc3cnc([C@](O)(c4ccccc4)C4CCCCC4)o3)CCC1CC2)c1ccccc1` [Example 14, (R)-3-benzoyloxy-1-[2-((R)-cyclohexyl-hydroxy-phenyl-methyl)-oxazol-5-ylmethyl]-1-azonia-bicyclo[2.2.2]octane; formate], the Ki was 5 to 20 nM.

Still in this experiment, the particulars now being: SPA format; read-out: M3 Ki (SPA format).
As to `O[C@](c1ccccc1)(c1ncc(C[N+]23CCC(CC2)[C@@H](Oc2cccc(F)c2)C3)o1)C1CCCCC1` [Example 67, (R)-1-[2-((R)—Cyclohexyl-hydroxy-phenyl-methyl)-oxazol-5-ylmethyl]-3-(3-fluoro-phenoxy)-1-azonia-bicyclo[2.2.2]octane; bromide], the Ki was less than 5 nM.
Regarding `OC(c1ccccc1)(c1ncc(C[N+]23CCC(CC2)[C@@H](OCc2ccccc2)C3)o1)C1CCC1` (single isomer, unassigned) [Example 50, formate], the Ki is less than 5 nM.
`OC(c1ccccc1)(c1ccccc1)c1ncc(C[N+]23CCC(CC2)[C@@H](Oc2cccc(Cl)c2Cl)C3)o1` [Example 77, (R)-3-(2,3-dichloro-phenoxy)-1-[2-(hydroxy-diphenyl-methyl)-oxazol-5-ylmethyl]-1-azonia-bicyclo[2.2.2]octane; bromide]: the Ki was greater than 20 nM.
Regarding `OC(c1ccccc1)(c1ccccc1)c1ncc(C[N+]23CCC(CC2)[C@@H](Sc2cccc(F)c2)C3)o1` [Example 98, (R)-3-(3-Fluoro-phenylsulfanyl)-1-[2-(hydroxy-diphenyl-methyl)-oxazol-5-ylmethyl]-1-azonia-bicyclo[2.2.2]octane; bromide], the Ki is less than 5 nM.
In the case of `O[C@](c1ccccc1)(c1ncc(C[N+]23CCC(CC2)[C@@H](SCc2ccccc2)C3)o1)C1CCCCC1` [Example 41, (R)-3-Benzylsulfanyl-1-[2-((R)-cyclohexyl-hydroxy-phenyl-methyl)-oxazol-5-ylmethyl]-1-azonia-bicyclo[2.2.2]octane; bromide], the Ki is less than 5 nM.
Same read-out and setting: to `O[C@](c1ccccc1)(c1nnc(C[N+]23CCC(CC2)[C@@H](OCc2ccc(F)cc2)C3)o1)C1CCCCC1` [Example 140, (R)-1-[5-((R)—Cyclohexyl-hydroxy-phenyl-methyl)-[1,3,4]oxadiazol-2-ylmethyl]-3-(4-fluoro-benzyloxy)-1-azonia-bicyclo[2.2.2]octane; bromide] belongs less than 5 nM; to `OC(c1ccccc1)(c1ccccc1)c1ncc(C[N+]23CCC(CC2)[C@@H](Oc2cccc(C(F)(F)F)c2)C3)o1` [Example 75, (R)-1-[2-[Hydroxy-diphenyl-methyl)-oxazol-5-ylmethyl]-3-(3-trifluoromethyl-phenoxy)-1-azonia-bicyclo[2.2.2]octane; bromide], less than 5 nM.
Still for that read-out and setting: to `O[C@](c1ccccc1)(c1ncc(C[N+]23CCC(CC2)[C@H](Oc2ccccc2)C3)o1)C1CCCCC1` [Example 8, (S)-1-[2-((R)—Cyclohexyl-hydroxy-phenyl-methyl)-oxazol-5-ylmethyl]-3-phenoxy-1-azonia-bicyclo[2.2.2]octane; bromide] belongs 5 to 20 nM; to `Cc1ccc(O[C@H]2C[N+]3(Cc4nc(C(O)(c5ccccc5)C5CCCCC5)no4)CCC2CC3)cc1Cl` (single isomer, unassigned) [Example 129], less than 5 nM; to `OC(c1ccccc1)(c1noc(C[N+]23CCC(CC2)[C@H](COc2ccccc2)C3)n1)C1CCCCC1` (single isomer, unassigned) [Example 144], less than 5 nM.
Regarding `OC(c1ccccc1)(c1noc(C[N+]23CCC(CC2)C(CSc2cccc(F)c2)C3)n1)C1CCCCC1` (single isomer, unassigned) [Example 133], the Ki was less than 5 nM.
Take `O[C@](c1ccccc1)(c1ncc(C[N+]23CCC(CC2)[C@@H](OCc2ccc(Cl)cc2)C3)o1)C1CCCCC1` [Example 23, (R)-3-(4-Chloro-benzyloxy)-1-[2-((R)-cyclohexyl-hydroxy-phenyl-methyl)-oxazol-5-ylmethyl]-1-azonia-bicyclo[2.2.2]octane; bromide]: the Ki was less than 5 nM.
The same measure, in the same setting: to `CC(C)=CCO[C@H]1C[N+]2(Cc3cnc([C@](O)(c4ccccc4)C4CCCCC4)o3)CCC1CC2` [Example 38, (R)-1-[2-((R)-cyclohexyl-hydroxy-phenyl-methyl)-oxazol-5-ylmethyl]-3-(3-methyl-but-2-enyloxy)-1-azonia-bicyclo[2.2.2]octane; formate] belongs less than 5 nM.
Still for that read-out and setting: next, `OC(c1ccccc1)(c1noc(C[N+]23CCC(CC2)[C@@H](SCc2ccccc2)C3)n1)C1CCCCC1` (single isomer, unassigned) [Example 127]: less than 5 nM; `OC(c1ccccc1)(c1ncc(C[N+]23CCC(CC2)[C@@H](OCc2ccccc2)C3)s1)C1CCCCC1` (stereo partly drawn) [Example 29, (R)-3-Benzyloxy-1-[2-(cyclohexyl-hydroxy-phenyl-methyl)-thiazol-5-ylmethyl]-1-azonia-bicyclo[2.2.2]octane; bromide]: less than 5 nM; `OC(c1ccccc1)(c1cc(C[N+]23CCC(CC2)C(CSc2ccccc2)C3)on1)C1CCCCC1` (single isomer, unassigned) [Example 123]: less than 5 nM.
Same read-out and setting: to `O[C@](c1ccccc1)(c1ncc(C[N+]23CCC(CC2)[C@H](COc2ccccc2)C3)o1)C1CCCCC1` [Example 24, (S)-1-[2-((R)—Cyclohexyl-hydroxy-phenyl-methyl)-oxazol-5-ylmethyl]-3-phenoxymethyl-1-azonia-bicyclo[2.2.2]octane; bromide] belongs less than 5 nM.
As to `O[C@](c1ccccc1)(c1ncc(C[N+]23CCC(CC2)[C@H](SCc2ccccc2)C3)o1)C1CCCCC1` [Example 40, (S)-3-Benzylsulfanyl-1-[2-((R)-cyclohexyl-hydroxy-phenyl-methyl)-oxazol-5-ylmethyl]-1-azonia-bicyclo[2.2.2]octane; bromide], the Ki is less than 5 nM.
Same read-out and setting: next, `OC(c1ccccc1)(c1ccccc1)c1ncc(C[N+]23CCC(CC2)[C@@H](OCc2ccc(Cl)cc2)C3)o1` [Example 28, (R)-3-(4-Chloro-benzyloxy-1-[2-(hydroxy-diphenyl-methyl)-oxazol-5-ylmethyl]-1-azonia-bicyclo[2.2.2]octane; bromide]: 5 to 20 nM; `OC(c1ccccc1)(c1ccccc1)c1noc(C[N+]23CCC(CC2)[C@@H](Oc2ccsc2)C3)n1` [Example 115, (R)-1-[3-(Hydroxy-diphenyl-methyl)-[1,2,4]oxadiazol-5-ylmethyl]-3-(thiophen-3-yloxy)-1-azonia-bicyclo[2.2.2]octane; chloride]: less than 5 nM; `O[C@](c1ccccc1)(c1ncc(C[N+]23CCC(CC2)C(COc2ccc(F)cc2)C3)o1)C1CCCCC1` (single isomer, unassigned) [Example 82]: less than 5 nM.
In the case of `O[C@](c1ccccc1)(c1ncc(C[N+]23CCC(CC2)[C@@H](Oc2ccccc2)C3)o1)C1CCCCC1` [Example 9, (R)-[2-((R)—Cyclohexyl-hydroxy-phenyl-methyl)-oxazol-5-ylmethyl]-3-phenoxy-1-azonia-bicyclo[2.2.2]octane; bromide], the Ki is less than 5 nM.
On to `O[C@](c1ccccc1)(c1ncc(C[N+]23CCC(CC2)[C@H](CSc2ccc(F)cc2)C3)o1)C1CCCCC1` [Example 109, (S)-1-[2-((R)—Cyclohexyl-hydroxy-phenyl-methyl)-oxazol-5-ylmethyl]-3-(4-fluoro-phenylsulfanylmethyl)-1-azonia-bicyclo[2.2.2]octane; bromide], for which the Ki was less than 5 nM.
As for `O[C@](c1ccccc1)(c1ncc(C[N+]23CCC(CC2)[C@@H](OCc2ccc(Cl)c(Cl)c2)C3)o1)C1CCCCC1` [Example 22, (R)-1-[2-((R)-cyclohexyl-hydroxy-phenyl-methyl)-oxazol-5-ylmethyl]-3-(3,4-dichloro-benzyloxy)-1-azonia-bicyclo[2.2.2]octane; formate], the Ki is less than 5 nM.
`OC(c1ccccc1)(c1ccccc1)c1ncc(C[N+]23CCC(CC2)C(COc2cccc(F)c2)C3)o1` (single isomer, unassigned) [Example 84, 3-(3-Fluoro-phenoxymethyl)-1-[2-(hydroxy-diphenyl-methyl)-oxazol-5-ylmethyl]-1-azonia-bicyclo[2.2.2]octane; bromide]: the Ki is less than 5 nM.
Same read-out and setting: next, `OC(c1ccccc1)(c1ccccc1)c1ncc(C[N+]23CCC(CC2)[C@@H](COc2ccccc2)C3)o1` [Example 26, (R)-1-[2-(Hydroxy-diphenyl-methyl)-oxazol-5-ylmethyl]-3-phenoxymethyl-1-azonia-bicyclo[2.2.2]octane; bromide]: less than 5 nM; `O[C@](c1ccccc1)(c1ncc(C[N+]23CCC(CC2)[C@@H](OCc2ccc(F)cc2)C3)o1)C1CCCCC1` [Example 32, (R)-1-[2-((R)—Cyclohexyl-hydroxy-phenyl-methyl)-oxazol-5-ylmethyl]-3-(4-fluoro-benzyloxy)-1-azonia-bicyclo[2.2.2]octane; bromide]: less than 5 nM; `OC(c1ccccc1)(c1ccccc1)c1noc(C[N+]23CCC(CC2)[C@@H](Oc2ccccc2)C3)n1` [Example 103, (R)-1-[3-(Hydroxy-diphenyl-methyl)-[1,2,4]oxadiazol-5-ylmethyl]-3-phenoxy-1-azonia-bicyclo[2.2.2]octane; chloride]: less than 5 nM.
The same measure, in the same setting: next, `OC(c1ccccc1)(c1ccccc1)c1noc(C[N+]23CCC(CC2)[C@@H](Oc2ccc4c(c2)OCO4)C3)n1` [Example 135, (R)-3-(Benzo[1,3]dioxol-5-yloxy)-1-[3-hydroxy-diphenyl-methyl)-[1,2,4]oxadiazol-5-ylmethyl]-1-azonia-bicyclo[2.2.2]octane; chloride]: less than 5 nM.

Broadly, the Ki is the equilibrium dissociation constant of an inhibitor or competing ligand from its target.
